The record followed here is US9321809B2, “Macrocyclic compounds for suppressing replication of hepatitis C virus” (Ginkgo Pharma Co., Ltd., priority 2012, dated 2016).

Molecules are shown by their SMILES.

For the assay, the system named is HCV replicon-containing huh-7 cells (replicon 1b). In words: HCV Replicon Assay (luciferase readout). Type of assay: cell-based. The settings on record: Hepatitis C virus; HCV replicon 1b in huh-7 cells, 48 h incubation, 1% DMSO, luciferase signal; read-out: EC50 (EC 50 on replicon 1b). The protocol: Compounds of formuala (I) are tested for the ability to inhibit viral replication of the Hepatitis C viruses by the following in vitro assays.
DMEM (Life Technologies #41965-039) was supplemented with 10% FBS, 2 mM L-glutamine (Life Technologies #25030-024), penicillin (100 units/ml)/streptomycin (100 micrograms/ml) (Life Technologies #15140-114), 1× non-essential amino acids (Life Technologies #11140-035).
Complete media was prepared by mixing FBS, DMEM media with Geneticin (G418). The compete media was preincubated at 37° C. in a CO2 incubator. Then, HCV replicon-containing huh-7 cells (V. Lohmann et. al. Science, 285, (1999)110-113) was taken out from 37° C. incubator. The residual medium was absorbed, and the cells were washed with PBS. After washing fluid was removed, 1 ml 0.25% trypsin/0.02% EDTA solution. The cells were washed by the above trypsin/EDTA solution to make sure that each cell was cleaned. After the trypsin/EDTA solution was absorbed, the mixture was incubated at 37° C. in a CO2 incubator for 3-5 minutes. Morphological changes were observed by inverted microscope, till the cells were detached from the wall of container completely.
3 ml of complete media was added to make the cells to suspend. The cells are counted with hematometer. Appropriate volumes of the complete media was added to adjust the cell density to 100,000/ml. Cells were plated with 100 μl of suspension at 10,000/well of 96 well plate. Plates were placed into 37° C. 5% CO2 incubator for 24 h.
Preparation of Drug Solution:
Drugs were diluted under aseptic conditions.
Stock solutions may be prepared before the assay, which means that the test compounds are dissolved in 100% DMSO to afford a final concentration of 2 mM. Before the 96 well culture was completed, the stock solution was diluted with culter media to 100 fold of the final concentration (100× solution).
96-well plates were taken out from 37° C. CO2 incubator and morphological changes were observed by inverted microscope. In a ventilator, 1 μl of 100× drug solution was added to wells of 96 well plate until the final concentration of DMSO in the mixture is 1%. The plates were incubated at 37° C. in a CO2 environment for 48 h. 30 μl of Stead-G1® Luciferase Assay System (bought from Promega) was added to each well of 96 well plates and each plate is shaken in a plate shaker for 5 minutes to ensure cells cleavaged completely. The fluorescence signal was quantitated in a Perkin-Elmer plate reader (Envision) and integral time was setted to be 2 second. The following data were achieved after recording and analyzing the data.
Background: Replicon systems follow genome replication, usually without infectious particles.
In the case of `C=C[C@@H]1C[C@]1(NC(=O)[C@@H]1C[C@@H]2CN1C(=O)[C@H](C1CCCCC1)NC(=O)[C@@H](NC(=O)OC(C)(C)C)COC/C=C/c1cc3c(nccc3cc1OC)O2)C(=O)O` [Compound IIb-7, tert-butyl N-[(3R,5S,8S,11S,15E)-8-cyclohexyl-5-{[(1R,2S)-1-hydroxycarbonyl-2-ethenylcyclopropyl]carbamoyl}-18-methoxy-7,10-dioxo-2,13-dioxa-6,9,23-triazatetracyclo[15.6.2.13,6.020,24]hexacosa-1(23),15,17(25),18,20(24),21-hexaen-11-yl]carbamate], the EC50 is 500 to 20000 nM. The figure for `C=C[C@@H]1C[C@]1(NC(=O)[C@@H]1C[C@@H]2CN1C(=O)[C@H](C1CCCC1)NC(=O)[C@@H](NC(=O)OC(C)(C)C)COC/C=C/c1cccc3c1CN(C3)C(=O)O2)C(=O)NS(=O)(=O)C1CC1` [Compound IIa-22, tert-butyl N-[(1R,12E,17S,20S,23S)-20-cyclopentyl-23-{[(1R,2S)-1-[(cyclopropanesulfonyl)carbamoyl]-2-ethenylcyclopropyl]carbamoyl}-3,18,21-trioxo-2,15-dioxa-4,19,22-triazatetracyclo[20.2.1.1^4,7.0^6,11]hexacosa-6,8,10,12-tetraen-17-yl]carbamate] is below 10 nM; for `C=C[C@@H]1C[C@]1(NC(=O)[C@@H]1C[C@@H]2CN1C(=O)[C@H](C(C)(C)C)NC(=O)[C@@H](NC(=O)OC(C)(C)C)COCCCc1cc3c(nccc3cc1OC)O2)C(=O)NS(=O)(=O)C1CC1` [Compound IIb-2, tert-butyl N-[(3R,5S,8S,11S)-8-tert-butyl-5-{[(1R,2S)-1-[(cyclopropanesulfonyl)carbamoyl]-2-ethenylcyclopropyl]carbamoyl}-18-methoxy-7,10-dioxo-2,13-dioxa-6,9,23-triazatetracyclo[15.6.2.1^3,6.0^20,24]hexacosa-1(23),17(25),18,20(24),21-pentaen-11-yl]carbamate] it is below 10 nM; for `CC[C@@H]1C[C@]1(NC(=O)[C@@H]1C[C@@H]2CN1C(=O)[C@H](C1CCCCC1)NC(=O)[C@@H](NC(=O)OC(C)(C)C)COC/C=C/c1cc3c(nccc3cc1OC)O2)C(=O)NS(=O)(=O)C1CC1` [Compound IIb-5, tert-butyl N-[(3R,5S,8S,11S,15E)-8-cyclohexyl-5-{[(1R,2R)-1-[(cyclopropanesulfonyl)carbamoyl]-2-ethylcyclopropyl]carbamoyl}-18-methoxy-7,10-dioxo-2,13-dioxa-6,9,23-triazatetracyclo[15.6.2.1^3,6.0^20,24]hexacosa-1(23),15,17(25),18,20(24),21-hexaen-11-yl]carbamate] it is 10 to 50 nM.

Turning to `C=C[C@@H]1C[C@]1(NC(=O)[C@@H]1C[C@@H]2CN1C(=O)[C@H](C(C)(C)C)NC(=O)[C@@H](NS(C)(=O)=O)COC/C=C/c1cccc3c1CN(C3)C(=O)O2)C(=O)NS(=O)(=O)C1CC1` [Compound IIa-8, (1R,12E,17S,20S,23S)-20-tert-butyl-N-[(1R,2S)-1-[(cyclopropanesulfonyl)carbamoyl]-2-ethenylcyclopropyl]-17-methanesulfonamido-3,18,21-trioxo-2,15-dioxa-4,19,22-triazatetracyclo[20.2.1.1^4,7.0^6,11]hexacosa-6,8,10,12-tetraene-23-carboxamide], the EC50 is 10 to 50 nM. On to `C=C[C@@H]1C[C@]1(NC(=O)[C@@H]1C[C@@H]2CN1C(=O)[C@H](C(C)(C)C)NC(=O)[C@H](NC(=O)OC(C)(C)C)COC/C=C/c1cccc3c1CN(C3)C(=O)O2)C(=O)NS(=O)(=O)C1CC1` [Compound IIa-3, tert-butyl N-[(1R,12E,17R,20S,23S)-20-tert-butyl-23-{[(1R,2S)-1-[(cyclopropanesulfonyl)carbamoyl]-2-ethenylcyclopropyl]carbamoyl}-3,18,21-trioxo-2,15-dioxa-4,19,22-triazatetracyclo[20.2.1.1^4,7.0^6,11]hexacosa-6,8,10,12-tetraen-17-yl]carbamate], for which the EC50 is 50 to 500 nM.

With `C=C[C@@H]1C[C@]1(NC(=O)[C@@H]1C[C@@H]2CN1C(=O)[C@H](C(C)(C)C)NC(=O)[C@@H](NC(=O)c1cnccn1)COC/C=C/c1cccc3c1CN(C3)C(=O)O2)C(=O)NS(=O)(=O)C1CC1` [Compound IIa-5, (1R,12E,17S,20S,23S)-20-tert-butyl-23-N-[(1R,2S)-1-[(cyclopropanesulfonyl)carbamoyl]-2-ethenylcyclopropyl]-3,18,21-trioxo-17-C-pyrazine-2-2,15-dioxa-4,19,22-triazatetracyclo[20.2.1.1^4,7.0^6,11]hexacosa-6,8,10,12-tetraene-17,23-diamido], the EC50 fell in the range of 50 to 500 nM. Under `C=C[C@@H]1C[C@]1(NC(=O)[C@@H]1C[C@@H]2CN1C(=O)[C@H](C(C)(C)C)NC(=O)[C@@H](N)COC/C=C/c1cccc3c1CN(C3)C(=O)O2)C(=O)NS(=O)(=O)C1CC1` [Compound IIa-2, (1R,12E,17S,20S,23S)-17-amino-20-tert-butyl-N-[(1R,2S)-1-[(cyclopropanesulfonyl)carbamoyl]-2-ethenylcyclopropyl]-3,18,21-trioxo-2,15-dioxa-4,19,22-triazatetracyclo[20.2.1.1^4,7.0^6,11]hexacosa-6,8,10,12-tetraene-23-carboxamide] stands 10 to 50 nM; under `C=C[C@@H]1C[C@]1(NC(=O)[C@@H]1C[C@@H]2CN1C(=O)[C@H](C1CCCCC1)NC(=O)[C@@H](NC(=O)OC(C)(C)C)COCCCc1cccc3c1CN(C3)C(=O)O2)C(=O)NS(=O)(=O)C1CC1` [Compound IIa-17, tert-butyl N-[(1R,17S,20S,23S)-20-cyclohexyl-23-{[(1R,2S)-1-[(cyclopropanesulfonyl)carbamoyl]-2-ethenylcyclopropyl]carbamoyl}-3,18,21-trioxo-2,15-dioxa-4,19,22-triazatetracyclo[20.2.1.1^4,7.0^6,11]hexacosa-6,8,10-trien-17-yl]carbamate], below 10 nM. Under `C=C[C@@H]1C[C@]1(NC(=O)[C@@H]1C[C@@H]2CN1C(=O)[C@H](C(C)(C)C)NC(=O)[C@@H](NC(=O)OC(C)(C)C)COC/C=C/c1cc3c(nccc3cc1OC)O2)C(=O)NS(=O)(=O)C1CC1` [Compound IIb-1, tert-butyl N-[(3R,5S,8S,11S,15E)-8-tert-butyl-5-{[(1R,2S)-1-[(cyclopropanesulfonyl)carbamoyl]-2-ethenylcyclopropyl]carbamoyl}-18-methoxy-7,10-dioxo-2,13-dioxa-6,9,23-triazatetracyclo[15.6.2.1^3,6.0^20,24]hexacosa-1(23),15,17(25),18,20(24),21-hexaen-11-yl]carbamate] stands below 10 nM. The figure for `C=C[C@@H]1C[C@]1(NC(=O)[C@@H]1C[C@@H]2CN1C(=O)[C@H](C(C)(C)C)NC(=O)[C@@H](NC(=O)OCC)COC/C=C/c1cccc3c1CN(C3)C(=O)O2)C(=O)NS(=O)(=O)C1CC1` [Compound IIa-9, ethyl N-[(1R,12E,17S,20S,23S)-20-tert-butyl-23-{[(1R,2S)-1-[(cyclopropanesulfonyl)carbamoyl]-2-ethenylcyclopropyl]carbamoyl}-3,18,21-trioxo-2,15-dioxa-4,19,22-triazatetracyclo[20.2.1.1^4,7.0^6,11]hexacosa-6,8,10,12-tetraen-17-yl]carbamate] is 10 to 50 nM.

In the case of `C=C[C@@H]1C[C@]1(NC(=O)[C@@H]1C[C@@H]2CN1C(=O)[C@H](C(C)(C)C)NC(=O)[C@@H](NC(=O)OC(C)(C)C)CCOC/C=C/c1cccc3c1CN(C3)C(=O)O2)C(=O)NS(=O)(=O)C1CC1` [Compound IIa-20], the EC50 is below 10 nM. The figure for `CC[C@@H]1C[C@]1(NC(=O)[C@@H]1C[C@@H]2CN1C(=O)[C@H](C1CCCCC1)NC(=O)[C@@H](NC(=O)OC(C)(C)C)COCCCc1cccc3c1CN(C3)C(=O)O2)C(=O)NS(=O)(=O)C1CC1` [Compound IIa-18, tert-butyl N-[(1R,17S,20S,23S)-20-cyclohexyl-23-{[(1R,2R)-1-[(cyclopropanesulfonyl)carbamoyl]-2-ethylcyclopropyl]carbamoyl}-3,18,21-trioxo-2,15-dioxa-4,19,22-triazatetracyclo[20.2.1.1^4,7.0^6,11]hexacosa-6,8,10-trien-17-yl]carbamate] is 10 to 50 nM.

The EC50 is the concentration giving half of the maximal effect.
